Results published in patent publication US20260199368A1, “[…] SYSTEM CONTAINING REMIMAZOLAM” (LTS LOHMANN THERAPIE-SYSTEME AG, priority 2022, published 2026).

Key:
[1] = In vivo studies using Goettingen minipigs: RMZ and CNS7054 plasma pharmacokinetics and bioavailability; details: IV, 10 mg
Method: In order to assess the pharmacokinetic profile and effect of buccally administered oromucosal delivery systems containing remimazolam besylate, in vivo experiments using Goettingen minipigs (female, about 3 months old, body weight was 7 kg at the start of the study) were conducted. Three minipigs were used. A single oromucosal delivery system of Examples 1c (foam) and 1d (hotmelt), prepared as described above, with a nominal amount of 20 mg remimazolam (formulated as 27.2 mg nominal remimazolam besylate), was used per animal (with the exception of animal No 3 in Phase 1, where only half of an oromucosal delivery system of each type was placed in each side). The oromucosal delivery system foam was cut into two pieces to fit on the buccal mucosa.
The dose was given by buccal administration (oromucosal delivery system; hotmelt and foam) or IV administration (10 mg remimazolam formulated as remimazolam besylate according to the treatment schedule shown in table 9. No less than 48 hours were allowed between dosing occasions to allow for proper wash-out. The treatment with the oromucosal delivery systems was performed as follows: • 1. The animals were anaesthetized by mask with isoflurane to obtain sufficient depth of anesthesia to facilitate the placement of the oromucosal delivery system without stressing the animals. The length and concentration of isoflurane anesthesia was similar in all animals. • 2. The oromucosal delivery system was placed on the buccal mucosa. A small amount of saline was applied to the mucosa to facilitate the dissolution process on a single occasion in Phase 1. • 3. The mouth of the minipigs was closed for 1-2 minutes and then opened to check for completely dissolved oromucosal delivery system. If the oromucosal delivery system was not dissolved further checks were performed with intervals of 1-2 minutes, as required. • 4. The isoflurane treatment was stopped as soon as the oromucosal delivery system was dissolved.
In order to evaluate the bioavailability, the animals also received a single intravenous (IV) dose. The IV dose volume was administered as a bolus over a period of approximately 1 minute.
The RMZ IV dose formulation was prepared in glass containers. To prepare said formulation of nominal 5 mg/mL (stock solution), a drug product vial (50 mg of RZM powder) was reconstituted with 10 mL of 0.9% w/v sodium chloride solution. The reconstituted solutions of RMZ were clear and colorless to slightly yellow. The reconstituted RMZ drug product was used within 24 hours.
After each dosing in phase 2-4, blood samples were taken from all animals. Blood samples were collected at 8 time points following application of the oromucosal delivery systems. Samples were collected at the following time points: pre-treatment, and 2, 5, 10, 20, 40, 60 and 90 minutes post-treatment.
RMZ concentrations and CNS7054 concentrations in minipig plasma were determined using a validated liquid-liquid extraction followed by LC-MS/MS. All samples, collected before treatment start, were measured to be below the limit of quantification (0.100 ng/mL).
Individual plasma concentrations are listed in Table 13 and are graphically depicted in FIGS. 3a to 5b. Additionally, basic pharmacokinetic parameters such as maximal plasma concentration (cmax), time to reaching it (tmax) and exposure defined as Area Under the Curve (AUC0-t) are summarized in Table 13 for each individual animal for both RMZ and CNS7054 and following IV administration or administration of either of the two oromucosal delivery system formulations.
For the evaluation of the bioavailability (BA), dose-normalized cmax (cmax/D) and dose-normalized AUC (AUC0-t/D) were determined for the two oromucosal delivery system formulations for RMZ and CNS7054.

[2] = pH and appearance of permeation donor solutions; type: physicochemical; details: Artificial Saliva
Method: The permeated amount and the corresponding mucosa permeation rates of the oromucosal delivery system prepared according to Examples 2a were determined by in vitro experiments in accordance with the OECD Guideline (adopted Apr. 13, 2004) using pig mucosa with a thickness of 400 μm (mucosa oesophagus). The donor solutions were prepared by dissolving a sample film of Example 2a with a size of 5.75 cm^2 either in 5 ml artificial saliva or in 5 ml 0.9% NaCl. The remimazolam besylate was dissolved in artificial saliva so that the applied dose of RMZ was equivalent to an oromucosal delivery system containing 50 mg remimazolam in 500 μL medium, and the pH of the mixture was adjusted as indicated in Table 19. The pH was measured using a pH electrode. The permeation donor solutions were directly applied to the mucosa (diffusion area of 4.524 cm^2). The remimazolam permeated amount in the receptor medium (phosphate buffer solution pH 7.4) at a temperature of 37±1° C. was measured and the corresponding mucosa permeation rate calculated.
Due to the high variability in permeation run 1 (n=3), a second permeation experiment was performed with more replicates (n=6) to enlarge the data basis. The samples used are defined in table 15. Example 2a and Lyophilizate were dissolved in artificial saliva and 0.9% NaCl, respectively. Due to a pH adjustment in the lyophilizate/drug product, the resulting pH was slightly lower (pH 3.14 and pH 3.09) than with the Example 2a without pH adjustment (pH 3.67 and pH 3.50). A RMZ sample set to pH 3 served as a control.

## COC(=O)CC[C@@H]1N=C(c2ccccn2)c2cc(Br)ccc2-n2c(C)cnc21.O=S(=O)(O)c1ccccc1 [RMZ, remimazolam besylate]
[1]; Animal No 1, 1 min
  CNS7054 plasma concentration: 108 ng/mL
  Remimazolam plasma concentration: 1032 ng/mL
[1]; Animal No 1, 5 min
  CNS7054 plasma concentration: 224 ng/mL
  Remimazolam plasma concentration: 767 ng/mL
[1]; Animal No 1, 10 min
  CNS7054 plasma concentration: 283 ng/mL
  Remimazolam plasma concentration: 389.5 ng/mL
[1]; Animal No 1, 20 min
  CNS7054 plasma concentration: 423 ng/mL
  Remimazolam plasma concentration: 285.5 ng/mL
[1]; Animal No 1, 40 min
  CNS7054 plasma concentration: 406 ng/mL
  Remimazolam plasma concentration: 149.3 ng/mL
[1]; Animal No 1, 60 min
  CNS7054 plasma concentration: 329 ng/mL
  Remimazolam plasma concentration: 76.1 ng/mL
[1]; Animal No 1, 90 min
  CNS7054 plasma concentration: 302 ng/mL
  Remimazolam plasma concentration: 40.6 ng/mL
[1]; Animal No 1
  CNS7054 AUC0-t: 30508.5 ng·min/mL
  CNS7054 cmax: 423 ng/mL
  CNS7054 tmax: 20 min
  Remimazolam AUC0-t: 18349.25 ng·min/mL
  Remimazolam cmax: 1032 ng/mL
  Remimazolam tmax: 2 min
[1]; Animal No 2, 1 min
  CNS7054 plasma concentration: 539 ng/mL
  Remimazolam plasma concentration: 1244 ng/mL
[1]; Animal No 2, 5 min
  CNS7054 plasma concentration: 707 ng/mL
  Remimazolam plasma concentration: 432 ng/mL
[1]; Animal No 2, 10 min
  CNS7054 plasma concentration: 851 ng/mL
  Remimazolam plasma concentration: 469 ng/mL
[1]; Animal No 2, 20 min
  CNS7054 plasma concentration: 783 ng/mL
  Remimazolam plasma concentration: 208.8 ng/mL
[1]; Animal No 2, 40 min
  CNS7054 plasma concentration: 508 ng/mL
  Remimazolam plasma concentration: 52.6 ng/mL
[1]; Animal No 2, 60 min
  CNS7054 plasma concentration: 267 ng/mL
[1]; Animal No 2, 90 min
  CNS7054 plasma concentration: 170 ng/mL
[1]; Animal No 2
  CNS7054 AUC0-t: 41688 ng·min/mL
  CNS7054 cmax: 851 ng/mL
  CNS7054 tmax: 10 min
  Remimazolam AUC0-t: 12539.5 ng·min/mL
  Remimazolam cmax: 1244 ng/mL
  Remimazolam tmax: 2 min
[1]; Animal No 3, 1 min
  CNS7054 plasma concentration: 387 ng/mL
  Remimazolam plasma concentration: 654 ng/mL
[1]; Animal No 3, 5 min
  CNS7054 plasma concentration: 815 ng/mL
  Remimazolam plasma concentration: 353.9 ng/mL
[1]; Animal No 3, 10 min
  CNS7054 plasma concentration: 798 ng/mL
  Remimazolam plasma concentration: 201 ng/mL
[1]; Animal No 3, 20 min
  CNS7054 plasma concentration: 770 ng/mL
  Remimazolam plasma concentration: 124.3 ng/mL
[1]; Animal No 3, 40 min
  CNS7054 plasma concentration: 625 ng/mL
  Remimazolam plasma concentration: 41.2 ng/mL
[1]; Animal No 3, 60 min
  CNS7054 plasma concentration: 423 ng/mL
  Remimazolam plasma concentration: 52.2 ng/mL
[1]; Animal No 3, 90 min
  CNS7054 plasma concentration: 123 ng/mL
[1]; Animal No 3
  CNS7054 AUC0-t: 46682.5 ng·min/mL
  CNS7054 cmax: 815 ng/mL
  CNS7054 tmax: 5 min
  Remimazolam AUC0-t: 8551.6 ng·min/mL
  Remimazolam cmax: 654 ng/mL
  Remimazolam tmax: 2 min
[2]; run 1, set pH 2
  Appearance of Donor Solution: Clear solution
[2]; run 1, set pH 3
  Appearance of Donor Solution: Little RMZ solid
[2]; run 1, set pH 4.5
  Appearance of Donor Solution: Much RMZ solid
[2]; run 1, set pH 6
  Appearance of Donor Solution: Very much RMZ solid
[2]; run 2, set pH 3
  Appearance of Donor Solution: Little RMZ solid
